Source: patent US20080058373A1, “Compositions and Methods for Treating or Preventing Glaucoma or Progression Thereof” (priority 2006, published 2008)

Legend:
Prostaglandin E2 (PGE2) = Prostaglandin E2 (PGE2) measurement in aqueous humor, rabbit paracentesis model; format: in vivo; conditions: second paracentesis, group mean
Procedure: Each rabbit was placed in a restraint device and tagged with the alphanumeric code. The formulations were instilled (50 μl) into the conjunctival sac of both eyes 180, 120, 90 and 30 min before the first paracentesis; then 15, 30, 90 min after the first paracentesis. To perform the first paracentesis the animals were anaesthetized by intravenous injection of 5 mg/kg Zoletil® (Virbac; 2.5 mg/kg tiletamine HCl and 2.5 mg/kg zolazepam HCl) and one drop of local anesthetic (Novesina®, Novartis) was administered to the eye. Anterior chamber paracentesis was performed with a 26 G needle attached to a tuberculin syringe; the needle was introduced into the anterior chamber through the cornea, taking care not to damage the tissues. Two hours after the first paracentesis, the animals were sacrificed with 0.4 ml Tanax® (Intervet International B.V.) and the second paracentesis was performed. About 100 μl of aqueous humor were removed at the second paracentesis. Aqueous humor was immediately split in four aliquots and stored at −80° C. until analysis. Then both eyes were enucleated and the iris-ciliary body was carefully excised, placed in polypropylene tubes, and stored at −80° C. until analysis.
For the quantitative determination of PGE2 in the aqueous humor we used the PGE2 Immunoassay kit (R&D Systems; Cat.No. KGE004; Lot.No. 240010). Eleven microliters or 16 μl of aqueous humor were diluted to 110 μl or 160 μl with the calibrator diluent solution provided with the kit. One hundred microliters of samples and of standards were load into a 96-well plate and recorded in a plate layout. Samples were treated following the assay procedure described in the kit. A microplate reader (GDV, Italy; model DV 990 B/V6) set at 450 nm (wavelength correction at 540 nm) was used for making the calibration and analyzing the samples.

[1] = test system: New Zealand White rabbits; assay: Intraocular pressure (IOP) in rabbits, topical dosing four times daily; format: in vivo; conditions: for Intraocular Pressure (MEAN): treated right eyes, A.M. readings
Procedure: Seventy-five rabbits underwent two weeks of IOP training to condition them for IOP measurement. IOP was determined for both eyes of each animal using a Medtronic Solan, Model 30 classic pneumatonometer. Proparacaine hydrochloride 0.5% (1 drop) was delivered to each eye prior to IOP measurement. A two-point diurnal curve was established: IOP was recorded on Monday, Wednesday, and Friday of each week, at 8 a.m. and 12 p.m., with a ±1 hour range for each of these times. The time of the measurements was recorded.
On Days 1-31, animals received daily topical doses of the appropriate test article into the right eye. Animals were dosed four times per day, with doses administered 2 hours apart. Doses were administered using a calibrated 50-μL pipette. The eyelids were held close for 10 seconds immediately following dosing. The time of each dose administration was recorded.
Intraocular pressure (“IOP”) was determined for both eyes of each animal on Days 3, 5, 10, 12, 16, 18, 22, 24, 26, 30, and 32. IOP was evaluated with a Medtronic Solan, Model 30 classic pneumatonometer. Proparacaine hydrochloride 0.5% (1 drop) was delivered to each eye prior to IOP measurement. IOP was measured on Monday, Wednesday, and Friday of each week. A two-point diurnal curve was established: IOP was recorded at 8 a.m. and 12 p.m. on Day 3, and at 8 a.m. and 2 p.m. on later days, with a ±1 hour range for each of these times. The time of the measurements was recorded.
Descriptive statistics were prepared for IOP data of each treatment group (left and right eyes separately) at each measurement interval. The statistics included the number of observations (“N”), mean, standard deviation (“STD”), and standard error (“SEM”). Statistical analyses were conducted on IOP results using Statistical Analysis Systems (SAS Institute, Inc., Cary, N.C., V8.0). Parameters were evaluated using analysis of variance/GLM Procedure followed by Tukey's Standardized Range Test (Tukey, 1985) for post hoc comparisons of group means. The level of significance was set at a probability of p<0.05 for all statistical procedures. Group IOP means were compared at each interval, with left and right eyes compared separately.

Cc1ccc2c(NCC(O)(CC(C)(C)c3cc(F)cc4c3OCC4)C(F)(F)F)cccc2n1 (stereo not drawn)
Levels of PGE2 in aqueous humor, Mean (Prostaglandin E2 (PGE2); 0.1% topical): 1.452 ng/mL
Levels of PGE2 in aqueous humor, Mean (Prostaglandin E2 (PGE2); 0.5% topical): 1.384 ng/mL
Levels of PGE2 in aqueous humor, Mean (Prostaglandin E2 (PGE2); 1% topical): 2.168 ng/mL
Intraocular Pressure in Untreated Left Eyes (A.M. Readings), MEAN ([1]; 1 mg/g (Group D), Day 3): 23.5 mmHg
Intraocular Pressure in Untreated Left Eyes (A.M. Readings), MEAN ([1]; 1 mg/g (Group D), Day 5): 24.4 mmHg
Intraocular Pressure in Untreated Left Eyes (A.M. Readings), MEAN ([1]; 1 mg/g (Group D), Day 10): 24.5 mmHg
Intraocular Pressure in Untreated Left Eyes (A.M. Readings), MEAN ([1]; 1 mg/g (Group D), Day 12): 22.2 mmHg
Intraocular Pressure in Untreated Left Eyes (A.M. Readings), MEAN ([1]; 1 mg/g (Group D), Day 16): 21.6 mmHg
Intraocular Pressure in Untreated Left Eyes (A.M. Readings), MEAN ([1]; 1 mg/g (Group D), Day 18): 23.3 mmHg
Intraocular Pressure in Untreated Left Eyes (A.M. Readings), MEAN ([1]; 1 mg/g (Group D), Day 22): 22.4 mmHg
Intraocular Pressure in Untreated Left Eyes (A.M. Readings), MEAN ([1]; 1 mg/g (Group D), Day 24): 22.4 mmHg
Intraocular Pressure in Untreated Left Eyes (A.M. Readings), MEAN ([1]; 1 mg/g (Group D), Day 26): 22.9 mmHg
Intraocular Pressure in Untreated Left Eyes (A.M. Readings), MEAN ([1]; 1 mg/g (Group D), Day 30): 23.4 mmHg
Intraocular Pressure in Untreated Left Eyes (A.M. Readings), MEAN ([1]; 1 mg/g (Group D), Day 32): 24.1 mmHg
Intraocular Pressure in Untreated Left Eyes (A.M. Readings), MEAN ([1]; 1 mg/g (Group D), Pre-Study): 23.9 mmHg
Intraocular Pressure in Untreated Left Eyes (A.M. Readings), MEAN ([1]; 5 mg/g (Group C), Day 3): 23.8 mmHg
Intraocular Pressure in Untreated Left Eyes (A.M. Readings), MEAN ([1]; 5 mg/g (Group C), Day 5): 24.4 mmHg
Intraocular Pressure in Untreated Left Eyes (A.M. Readings), MEAN ([1]; 5 mg/g (Group C), Day 10): 24.6 mmHg
Intraocular Pressure in Untreated Left Eyes (A.M. Readings), MEAN ([1]; 5 mg/g (Group C), Day 12): 23.8 mmHg
Intraocular Pressure in Untreated Left Eyes (A.M. Readings), MEAN ([1]; 5 mg/g (Group C), Day 16): 23.4 mmHg
Intraocular Pressure in Untreated Left Eyes (A.M. Readings), MEAN ([1]; 5 mg/g (Group C), Day 18): 21.9 mmHg
Intraocular Pressure in Untreated Left Eyes (A.M. Readings), MEAN ([1]; 5 mg/g (Group C), Day 22): 21.6 mmHg
Intraocular Pressure in Untreated Left Eyes (A.M. Readings), MEAN ([1]; 5 mg/g (Group C), Day 24): 22.1 mmHg
Intraocular Pressure in Untreated Left Eyes (A.M. Readings), MEAN ([1]; 5 mg/g (Group C), Day 26): 21.7 mmHg
Intraocular Pressure in Untreated Left Eyes (A.M. Readings), MEAN ([1]; 5 mg/g (Group C), Day 30): 22.6 mmHg
Intraocular Pressure in Untreated Left Eyes (A.M. Readings), MEAN ([1]; 5 mg/g (Group C), Day 32): 23.1 mmHg
Intraocular Pressure in Untreated Left Eyes (A.M. Readings), MEAN ([1]; 5 mg/g (Group C), Pre-Study): 24.2 mmHg
Intraocular Pressure in Untreated Left Eyes (A.M. Readings), MEAN ([1]; 10 mg/g (Group B), Day 3): 23.3 mmHg
Intraocular Pressure in Untreated Left Eyes (A.M. Readings), MEAN ([1]; 10 mg/g (Group B), Day 5): 23.4 mmHg
Intraocular Pressure in Untreated Left Eyes (A.M. Readings), MEAN ([1]; 10 mg/g (Group B), Day 10): 24.0 mmHg
Intraocular Pressure in Untreated Left Eyes (A.M. Readings), MEAN ([1]; 10 mg/g (Group B), Day 12): 23.8 mmHg
Intraocular Pressure in Untreated Left Eyes (A.M. Readings), MEAN ([1]; 10 mg/g (Group B), Day 16): 22.9 mmHg
Intraocular Pressure in Untreated Left Eyes (A.M. Readings), MEAN ([1]; 10 mg/g (Group B), Day 18): 21.2 mmHg
Intraocular Pressure in Untreated Left Eyes (A.M. Readings), MEAN ([1]; 10 mg/g (Group B), Day 22): 21.8 mmHg
Intraocular Pressure in Untreated Left Eyes (A.M. Readings), MEAN ([1]; 10 mg/g (Group B), Day 24): 20.2 mmHg
Intraocular Pressure in Untreated Left Eyes (A.M. Readings), MEAN ([1]; 10 mg/g (Group B), Day 26): 21.7 mmHg
Intraocular Pressure in Untreated Left Eyes (A.M. Readings), MEAN ([1]; 10 mg/g (Group B), Day 30): 22.7 mmHg
Intraocular Pressure in Untreated Left Eyes (A.M. Readings), MEAN ([1]; 10 mg/g (Group B), Day 32): 22.9 mmHg
Intraocular Pressure in Untreated Left Eyes (A.M. Readings), MEAN ([1]; 10 mg/g (Group B), Pre-Study): 23.8 mmHg
Intraocular Pressure (MEAN) ([1]; Day 3, 1 mg/g (Group D)): 23.0 mmHg
Intraocular Pressure (MEAN) ([1]; Day 3, 5 mg/g (Group C)): 23.7 mmHg
Intraocular Pressure (MEAN) ([1]; Day 3, 10 mg/g (Group B)): 22.7 mmHg
Intraocular Pressure (MEAN) ([1]; Day 5, 1 mg/g (Group D)): 24.7 mmHg
Intraocular Pressure (MEAN) ([1]; Day 5, 5 mg/g (Group C)): 24.7 mmHg
Intraocular Pressure (MEAN) ([1]; Day 5, 10 mg/g (Group B)): 23.8 mmHg
Intraocular Pressure (MEAN) ([1]; Day 10, 1 mg/g (Group D)): 24.8 mmHg
Intraocular Pressure (MEAN) ([1]; Day 10, 5 mg/g (Group C)): 25.2 mmHg
Intraocular Pressure (MEAN) ([1]; Day 10, 10 mg/g (Group B)): 24.5 mmHg
Intraocular Pressure (MEAN) ([1]; Day 12, 1 mg/g (Group D)): 23.4 mmHg
Intraocular Pressure (MEAN) ([1]; Day 12, 5 mg/g (Group C)): 25.0 mmHg
Intraocular Pressure (MEAN) ([1]; Day 12, 10 mg/g (Group B)): 23.9 mmHg
Intraocular Pressure (MEAN) ([1]; Day 16, 1 mg/g (Group D)): 22.1 mmHg
Intraocular Pressure (MEAN) ([1]; Day 16, 5 mg/g (Group C)): 24.3 mmHg
Intraocular Pressure (MEAN) ([1]; Day 16, 10 mg/g (Group B)): 23.4 mmHg
Intraocular Pressure (MEAN) ([1]; Day 18, 1 mg/g (Group D)): 23.7 mmHg
Intraocular Pressure (MEAN) ([1]; Day 18, 5 mg/g (Group C)): 23.9 mmHg
Intraocular Pressure (MEAN) ([1]; Day 18, 10 mg/g (Group B)): 22.3 mmHg
Intraocular Pressure (MEAN) ([1]; Day 22, 1 mg/g (Group D)): 23.2 mmHg
Intraocular Pressure (MEAN) ([1]; Day 22, 5 mg/g (Group C)): 22.4 mmHg
Intraocular Pressure (MEAN) ([1]; Day 22, 10 mg/g (Group B)): 22.4 mmHg
Intraocular Pressure (MEAN) ([1]; Day 24, 1 mg/g (Group D)): 22.1 mmHg
Intraocular Pressure (MEAN) ([1]; Day 24, 5 mg/g (Group C)): 23.8 mmHg
Intraocular Pressure (MEAN) ([1]; Day 24, 10 mg/g (Group B)): 21.2 mmHg
Intraocular Pressure (MEAN) ([1]; Day 26, 1 mg/g (Group D)): 23.1 mmHg
Intraocular Pressure (MEAN) ([1]; Day 26, 5 mg/g (Group C)): 22.1 mmHg
Intraocular Pressure (MEAN) ([1]; Day 26, 10 mg/g (Group B)): 21.8 mmHg
Intraocular Pressure (MEAN) ([1]; Day 30, 1 mg/g (Group D)): 24.2 mmHg
Intraocular Pressure (MEAN) ([1]; Day 30, 5 mg/g (Group C)): 22.9 mmHg
Intraocular Pressure (MEAN) ([1]; Day 30, 10 mg/g (Group B)): 22.7 mmHg
